Patent publication US20130165475A1, “DEUTERIUM-ENRICHED HETEROCYCLIC COMPOUNDS AS KINASE INHIBITORS” (ASCEPION PHARMACEUTICALS, INC., priority 2010, published 2013)
Structures can show the parent of a compound that is named as a salt.

Tests used:
PDGFRβ = molecular target: T1, PDGFRβ (Homo sapiens, UniProt P09619); assay: PDGFRβ cell-based assay (ELISA, phosphor-/total PDGFRβ in transfected CHO cells); settings: compound at 100 nM; CHO cells transfected with full length PDGFRβ; FBS stimulation; read-out: % PDGFRβ kinase activity remains
T1 construct: expressed in transfected cells; host or cells: CHO cells
Text: A standard cell-based assay for PDGFRβ kinase activity can be used to test or screen the compounds of this invention and to identify PDGFRβ antagonists. In this example, ELISA kits (R&D Systems, Inc., Minneapolis, Minn. 55413, USA) were used.
(§1) The activity of PDGFRβ in cells depended on its autophosphorylation level by various factors including growth factors. In order to induce the cell to produce PDGFRβ, full length of PDGFRβ sequence was cloned into PC-DNA3.1 vector, the plasmid was then transfected into CHO cells. After 48 hours, the expression of PDGFRβ in transfected CHO cells was confirmed by regular western blotting.
A compound to be tested was first dissolved in DMSO to a concentration of 10 mM and stored at −20° C. One day before the screening, CHO cells transfected with full length PDGFRβ plasmid were grown in DMEM medium without the presence of serum. On the day of screening procedure, the compounds with various concentration in DMSO (from 0.5 nM to 500 nM) were added into DMEM medium, two hours later, 20% of FBS (Fetal Bovine Serum) was added into the medium to stimulate the production of phosphor-PDGFRβ. Cell lysate from approximately 5×10^5 transfected CHO cells were reacted with anti-phosphor PDGFRβ or anti-total PDGFRβ antibody in 96 well plates, in the presence of detection antibody. The phosphor-PDGFRβ or total PDGFRβ were detected with Streptavidin-HRP (R&D Systems), followed by chemiluminescent detection. The level of PDGFRβ kinase activity was quantified as the ratio between the amount of phosphor- and that of total PDGFRβ proteins.

c-Met = molecular target: T2, c-Met (Homo sapiens, UniProt P08581); assay: c-Met cell-based assay (ELISA, phosphor-/total c-Met in transfected CHO cells, HGF stimulated); settings: compound at 100 nM; CHO cells transfected with full length c-Met; HGF 100 ng/mL
T2 construct: expressed in transfected cells; host or cells: CHO cells
Text: A standard cell-based assay for c-Met kinase activity can be used to test or screen the compounds of this invention and to identify c-Met antagonists. In this example, ELISA kits (R&D Systems, Inc., Minneapolis, Minn. 55413, USA) were used.
as §1, with “c-Met” for “PDGFRβ”, “it specific” for “various factors including”, “factor-Hepatocyte growth factor (HGF).” for “factors.”, “c-Met,” for “PDGFRβ,”
A compound to be tested was first dissolved in DMSO to a concentration of 10 mM and stored at −20° C. One day before the screening, CHO cells transfected with full length c-Met plasmid were grown in DMEM medium without the presence of serum. On the day of screening procedure, the compounds with various concentration in DMSO (from 0.5 nM to 500 nM) were added into DMEM medium, two hours later, Hepatocyte growth factor (HGF) was added into the medium at the concentration of 100 ng/mL to stimulate the production of phosphor-c-Met. Cell lysate from approximately 5×10^5 transfected CHO cells were reacted with anti-phosphor c-Met or anti-total c-Met antibody in 96 well plates, in the presence of detection antibody. The phosphor-c-Met or total c-Met were detected with Streptavidin-HRP (R&D Systems), followed by chemiluminescent detection. The level of c-Met kinase activity was quantified as the ratio between the amount of phosphor- and that of total c-Met proteins.

Mouse liver microsome = assay: Liver microsomal stability assay, mouse; assay type: in vitro ADME; set-up: key: A: the percentage of a compound remains is greater than that of its deuterium non-enriched counterpart; B: a result otherwise; settings: 40 μM, 37° C., 30 min, 1 mg/ml microsome proteins; class relative to deuterium non-enriched counterpart
Protocol: (§2) A standard liver microsomal stability assay can be used to test or screen the compounds of this invention and to identify compounds with enhanced metabolic stability due to the enrichment of deuterium in the compounds. Liver microsome proteins prepared from different species such as mouse and rat were obtained from a commercial source (Research Institute for Liver Diseases, Shanghai, China). The assay was conducted in 1.5% potassium hydrogenphosphate (K2HPO4) in the presence of liver microsome proteins at 1 mg/ml and supplemented with an […] (3.3 mM NADPH, 3.3 mM glucose-6-phosphate, 6 units/ml G6PDase, and 3.3 mM magnesium chloride). Test compound was added into the assay mixture to a final concentration of 40 μM and incubated at 37° C. for 0 or 30 minutes. The reaction was stopped by the addition of 20 μM Bifonazole/CAN. Samples were then centrifuged at 14000 rpm for 10 minutes to precipitate proteins. Supernatant were then transferred to microcentrifuge tubes and subject to reverse phase HPLC analysis to determine the concentration of test compound.
(§3) The percentage of compounds that remained in the assay reactions after a thirty-minute incubation at 37° C. is calculated as the ratio between the amount of compound remained after a thirty-minute and that after a zero-minute incubation.

Rat liver microsome = assay: Liver microsomal stability assay, rat; assay type: in vitro ADME; set-up: key: A: the percentage of a compound remains is greater than that of its deuterium non-enriched counterpart; B: a result otherwise; settings: 40 μM, 37° C., 30 min, 1 mg/ml microsome proteins; class relative to deuterium non-enriched counterpart
Protocol: as §2, §3

[1] = test system: A549 human non-small cell lung cancer cells; assay: In vivo anti-tumor efficacy, A549 xenograft; settings: A549 s.c. in nu/nu Balb/c athymic mice, 50 mg/kg once per day oral gavage
Protocol: Female (nu/nu) Balb/c athymic mice at 4-6 weeks of age were injected subcutaneously (s.c.) with MDA-MB-231 human breast cancer cells, A549 human non-small cell lung cancer cells, BEL7401 human liver cancer cells, HT-29 human colon cancer cells, or MKN-45 human gastric cancer cells (ATCC, 5×10^6 cells suspended in 100 μl DMEM medium). Treatment was initiated after the tumor mass grown from subcutaneous implanted tumor cells reaches a median volume of 200-400 mm^3. Mice were randomized into groups with three in each group such that the median tumor volume is nearly equal among all groups. […] Tumor volumes were assessed at least twice weekly by caliper measurement from the start of treatment. Tumor volume was calculated using the formula ½×L×W^2 (L: length of tumor's long axis, W: length of tumor's short axis). […] The efficacy of compounds in reducing tumor growth was assessed by the index Tumor Growth Inhibition (TGI). TGI for a given treatment period was calculated using the group mean tumor volumes according to the formula: TGI=100×(Vvehicle—group−VTreatment—group)÷VVehicle—group wherein VVehicle—group representing the mean tumor volume for the group treated with vehicle and VTreatment—group representing the mean tumor volume of the group treated with a compound.

T2 sequence (P08581 25-1390): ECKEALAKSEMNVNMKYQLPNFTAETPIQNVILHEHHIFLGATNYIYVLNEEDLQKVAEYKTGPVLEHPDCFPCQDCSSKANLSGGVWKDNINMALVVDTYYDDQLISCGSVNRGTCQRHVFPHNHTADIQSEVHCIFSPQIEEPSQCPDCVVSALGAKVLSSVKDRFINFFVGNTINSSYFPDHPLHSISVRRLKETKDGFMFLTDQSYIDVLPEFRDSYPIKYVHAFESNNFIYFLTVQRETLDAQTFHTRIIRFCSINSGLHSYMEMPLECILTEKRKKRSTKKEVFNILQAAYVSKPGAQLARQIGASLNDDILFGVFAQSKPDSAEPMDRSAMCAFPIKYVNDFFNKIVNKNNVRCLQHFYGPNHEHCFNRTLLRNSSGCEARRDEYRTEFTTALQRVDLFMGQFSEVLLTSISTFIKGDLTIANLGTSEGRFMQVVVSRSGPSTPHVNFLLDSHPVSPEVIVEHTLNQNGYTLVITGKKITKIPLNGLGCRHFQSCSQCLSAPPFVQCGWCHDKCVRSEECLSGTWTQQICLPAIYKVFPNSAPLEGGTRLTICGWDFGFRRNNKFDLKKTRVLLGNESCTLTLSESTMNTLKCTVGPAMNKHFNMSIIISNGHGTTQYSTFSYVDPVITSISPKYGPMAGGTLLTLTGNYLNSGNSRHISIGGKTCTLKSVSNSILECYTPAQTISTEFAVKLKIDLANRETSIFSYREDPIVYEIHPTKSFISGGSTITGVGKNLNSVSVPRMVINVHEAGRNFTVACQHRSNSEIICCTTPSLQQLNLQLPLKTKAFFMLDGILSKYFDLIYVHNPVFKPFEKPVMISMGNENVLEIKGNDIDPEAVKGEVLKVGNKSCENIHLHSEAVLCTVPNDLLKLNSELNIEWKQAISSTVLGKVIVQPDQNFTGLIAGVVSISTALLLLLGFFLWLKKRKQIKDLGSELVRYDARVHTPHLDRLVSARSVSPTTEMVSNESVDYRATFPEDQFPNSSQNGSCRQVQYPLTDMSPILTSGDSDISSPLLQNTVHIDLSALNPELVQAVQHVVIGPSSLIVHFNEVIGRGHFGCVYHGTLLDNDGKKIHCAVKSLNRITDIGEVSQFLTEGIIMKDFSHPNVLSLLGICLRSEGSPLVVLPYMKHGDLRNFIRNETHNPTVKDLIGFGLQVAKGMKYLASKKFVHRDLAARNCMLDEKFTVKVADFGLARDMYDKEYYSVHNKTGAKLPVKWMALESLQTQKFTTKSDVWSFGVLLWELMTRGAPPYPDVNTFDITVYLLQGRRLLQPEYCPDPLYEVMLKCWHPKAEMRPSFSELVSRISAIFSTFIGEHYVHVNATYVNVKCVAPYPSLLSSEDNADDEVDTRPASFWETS
T1 sequence (P09619 33-1106): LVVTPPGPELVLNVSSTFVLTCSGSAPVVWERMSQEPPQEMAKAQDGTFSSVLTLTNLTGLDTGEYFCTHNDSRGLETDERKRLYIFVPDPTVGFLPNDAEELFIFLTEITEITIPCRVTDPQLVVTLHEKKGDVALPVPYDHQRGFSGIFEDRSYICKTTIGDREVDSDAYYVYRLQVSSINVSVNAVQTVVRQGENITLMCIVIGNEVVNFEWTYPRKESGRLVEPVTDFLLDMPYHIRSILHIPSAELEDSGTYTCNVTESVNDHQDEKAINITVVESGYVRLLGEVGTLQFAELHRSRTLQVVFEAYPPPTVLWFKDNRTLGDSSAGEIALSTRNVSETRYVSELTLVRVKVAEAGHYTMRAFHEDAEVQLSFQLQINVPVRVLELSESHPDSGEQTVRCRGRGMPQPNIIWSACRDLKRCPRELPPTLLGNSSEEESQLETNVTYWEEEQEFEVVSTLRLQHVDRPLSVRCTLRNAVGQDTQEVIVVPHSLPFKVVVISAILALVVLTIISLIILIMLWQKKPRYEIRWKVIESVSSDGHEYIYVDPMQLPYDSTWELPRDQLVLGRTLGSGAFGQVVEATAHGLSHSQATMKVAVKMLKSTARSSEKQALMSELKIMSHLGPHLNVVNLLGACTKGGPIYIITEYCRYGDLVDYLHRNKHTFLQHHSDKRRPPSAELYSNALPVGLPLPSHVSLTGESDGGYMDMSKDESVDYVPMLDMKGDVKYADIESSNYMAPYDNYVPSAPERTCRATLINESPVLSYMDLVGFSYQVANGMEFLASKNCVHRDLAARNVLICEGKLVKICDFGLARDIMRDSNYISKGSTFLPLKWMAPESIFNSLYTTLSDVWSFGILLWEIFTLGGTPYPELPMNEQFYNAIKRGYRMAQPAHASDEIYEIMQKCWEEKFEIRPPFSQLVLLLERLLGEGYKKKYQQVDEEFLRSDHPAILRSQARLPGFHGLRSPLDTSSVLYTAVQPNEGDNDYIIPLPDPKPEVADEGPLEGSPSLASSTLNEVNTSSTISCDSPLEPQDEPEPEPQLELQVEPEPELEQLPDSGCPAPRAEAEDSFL

Structure (SMILES) | remaining activity at 0.1 µM (PDGFRβ) [%] | % C-Met kinase activity remains (c-Met) | % of compound remained at the 30th minutes, Mouse liver microsome (Mouse liver microsome) | % of compound remained at the 30th minutes, Rat liver microsome (Rat liver microsome) | Tumor Growth Inhibition (TGI) [1]
Cl.[2H]C([2H])(c1ccnc(N)c1)n1ccc2c(NC(=O)Nc3cc(Cl)ccc3OC)cccc21 [Example 2, 1-[1-[(2-amino-4-pyridyl)-dideuteriomethyl]indol-4-yl]-3-(5-chloro-2-methoxyphenyl)urea hydrochloride] | < 70 | B (the percentage is greater or equal to 70%) | A | A | A (the TGI is greater or equal to 50%)
[2H]C([2H])([2H])Oc1ccc(Cl)cc1NC(=O)Nc1cccc2c1ccn2Cc1ccnc(N)c1 [Example 6, 1-[1-[(2-amino-4-pyridyl)methyl]indol-4-yl]-3-[5-chloro-2-(trideuteriomethoxy)phenyl]urea] | < 70 | A (the percentage of kinase activity remains is below 70%) | B | A | –
[2H]C([2H])(c1ccnc2[nH]ccc12)N1CCc2c(NC(=O)Nc3cccc(C)c3)cccc21 [Example 13, 1-[1-[Dideuterio(1H-pyrrolo[2,3-b]pyridin-4-yl)methyl]indolin-4-yl]-3-(m-tolyl)urea hydrochloride] | < 70 | A (the percentage of kinase activity remains is below 70%) | A | A | –
[2H]C([2H])(c1ccnc2[nH]ccc12)n1ccc2c(NC(=O)Nc3cccc(C)c3)cccc21 [Example 14, 1-[1-[dideuterio(1H-pyrrolo[2,3-b]pyridin-4-yl)methyl]indol-4-yl]-3-(m-tolyl)urea hydrochloride] | < 70 | A (the percentage of kinase activity remains is below 70%) | A | A | –
[2H]C([2H])(c1ccnc(N)c1)N1CCc2c(NC(=O)Nc3cc(Cl)ccc3OC)cccc21 [Example 1, 1-[1-[(2-Amino-4-pyridyl)-dideuteriomethyl]indolin-4-yl]-3-(5-chloro-2-methoxyphenyl)urea] | < 70 | B (the percentage is greater or equal to 70%) | A | A | –
Cl.[2H]C([2H])([2H])Oc1ccc(Cl)cc1NC(=O)Nc1cccc2c1ccn2C([2H])([2H])c1ccnc2[nH]ccc12 [Example 8, 1-[5-chloro-2-(trideuteriomethoxy)phenyl]-3-[1-[dideuterio(1H-pyrrolo[2,3-b]pyridin-4-yl)methyl]indol-4-yl]urea hydrochloride] | < 70 | A (the percentage of kinase activity remains is below 70%) | A | A | –
[2H]C(c1c[nH]c2ncccc12)N1CCc2c(NC(=O)Nc3cccc(C)c3)cccc21 (stereo not shown) [Example 21, 1-[1-[Deuterio(1H-pyrrolo[2,3-b]pyridin-3-yl)methyl]indolin-4-yl]-3-(m-tolyl)urea] | < 70 | B (the percentage is greater or equal to 70%) | A | A | –
[2H]C(c1c[nH]c2ncccc12)n1ccc2c(NC(=O)Nc3cccc(C)c3)cccc21 (stereo not shown) [Example 22, 1-[1-[deuterio(1H-pyrrolo[2,3-b]pyridin-3-yl)methyl]indol-4-yl]-3-(m-tolyl)urea] | < 70 | A (the percentage of kinase activity remains is below 70%) | A | B | –
[2H]C([2H])(c1ccnc2[nH]ccc12)N1CCc2c(NC(=O)Nc3cc(Cl)ccc3OC)cccc21 [Example 9, 1-(5-Chloro-2-methoxyphenyl)-3-[1-[dideuterio(1H-pyrrolo[2,3-b]pyridin-4-yl)methyl]indolin-4-yl]urea hydrochloride] | < 70 | A (the percentage of kinase activity remains is below 70%) | A | A | –
